# Key:
# [1] = tested on: Stichococcus bacillaris SAG 379-1a CCAP 379/1a; experiment: Algal efficacy testing of dry paint film (modified ASTM 5589, 6-well plates); assay type: cell-based; settings: 4 weeks
# Procedure: (§1) Slurries containing 34.3% carbendazim were post added to a white, acrylic/silicone based outdoor paint free of biocides to give a total active ingredient concentration of 10000 and 1000 ppm respectively. These paints were then diluted with an antimicrobial free acrylic/silicone based paint and mixed to prepare targeted concentrations of antimicrobial compounds for the testing. The total biocides concentrations tested were 125, 250, 500, 1000, 2000 and 5000 ppm. After biocides addition or dilution, the paints were mixed 90 seconds with the horse power shaker (AXEL 75M3372/Agitateur SO-10MI) until uniformity was achieved. Paints containing different antimicrobial compounds at the same levels were mixed together in order to obtain the desired ratio of antimicrobial compounds. After one day, the paints were applied to Schleicher & Schuell filter paper at 280 μm wet film thickness and dried for 3 days at room temperature avoiding direct exposure to sunlight. Square discs (1.6 cm×1.6 cm) were cut out from each panel and were used as the substrate for algal efficacy tests. This sample size allowed for an agar border when the sample disc was placed into the well of the test plate.
# (§2) Algal efficacy was tested according to modified ASTM 5589 which is a standard accelerated test method for determining resistance of various coatings (including paints) to algal defacement. To accommodate for high-throughput screening, this method was scaled down from petri dishes to 6-well plates. Bold Modified Basal Freshwater Nutrient Solution was used as growth medium. A single coated filter paper coupon was placed with a pair of sterile forceps at the center of the agar plug (on top) with the painted surface facing upwards. Algal inoculums were prepared by mixing equal concentrations (1×10^6 cfu/ml) and equal volumes of exponentially growing algae cultures.
# (§3) Each well that contains a tested coupon was inoculated with 1750 μl of algal suspensions (1×10^6 cfu/ml) making sure that the whole surface (paint film as well as the agar surrounding it) was evenly covered. The plates were incubated at room temp (21° C. -25° C.) with cyclic exposure to light and dark phases, for a period of four weeks.
# (§4) At the end of the four week incubation period, the samples were scored for percent inhibition regarding visible algal growth compared to the blank sample (0% inhibition).
# (§5) The SI is calculated based on F. C. Kull et.
# (§6) The minimal targeted inhibition was set at 75%, meaning a coupon with at least 75% algal growth inhibition was considered as a pass.
# [2] = tested on: Chlorella sp. ATCC 7516; experiment: as above; assay type: cell-based; settings: 4 weeks
# Procedure: as §1, §2, §3, §4, §5, §6
# [3] = pass level 75% inhibition, total biocide in liquid paint
SMILES,"Total conc (concentration used for SI; lowest passing level or highest level without pass) [1, 3] [ppm]","inhibition at 2000 ppm ([1]; Stichococcus bacillaris, 672 h, total conc 2000 ppm, visible algal growth vs blank) [%]","Total conc (concentration used for SI; lowest passing level or highest level without pass) [2, 3] [ppm]","inhibition at 2000 ppm ([2]; 672 h, total conc 2000 ppm, visible algal growth vs blank) [%]","inhibition at 5000 ppm ([1]; Stichococcus bacillaris, 672 h, total conc 5000 ppm, visible algal growth vs blank) [%]","inhibition at 5000 ppm ([2]; 672 h, total conc 5000 ppm, visible algal growth vs blank) [%]"
"COC(=O)Nc1nc2ccccc2[nH]1 [Carbendazim, methylbenzimidazol-2-ylcarbamate]",2000,45,2000,45,–,–
"O=c1[nH]c2c(c(=O)n1C1CCCCC1)CCC2 [Lenacil, 3-cyclohexyl-1,5,6,7-tetrahydrocyclopentapyrimidine-2,4(3H)-dione]",–,–,–,–,65,45

# Source: patent publication US9408388B2 (Dow Global Technologies LLC, priority 2013, dated 2016)
